Measured values reported in PMC7918497, “Proposed Mechanism for the Antitrypanosomal Activity of Quercetin and Myricetin Isolated from Hypericum afrum Lam.: Phytochemistry, In Vitro Testing and Modeling Studies” (Molecules, 2021).
Read-outs that look alike come from different tables or passages of the source.

How the values were obtained:
[1] = system: L. donovani promastigotes; assay: In vitro antileishmanial assay, L. donovani promastigotes (Alamar Blue); type: cell-based, Leishmania donovani; details: for IC50: read-out: L. Donovani Promastigote IC50; for IC90: read-out: L. Donovani Promastigote IC90
Procedure: (§1) IC50 and IC90 values were computed from the dose–response curves using XLfit software. DFMO (difluoromethylornithine) was used as the positive control. The antiprotozoal activities of the H. afrum fractions and isolated compounds were evaluated in vitro against L. donovani promastigotes, axenic amastigotes and intracellular amastigotes in THP1 cells. The fractions and some isolated compounds were also evaluated against T. brucei trypomastigote forms.

[2] = General cytotoxicity against THP1 cells; type: cell-based, human; details: human, THP1 cells
[3] = system: L. donovani intracellular amastigotes in THP1 cells; assay: In vitro antileishmanial assay, intracellular amastigotes in THP1 cells (parasite rescue and transformation assay); type: cell-based, Leishmania donovani
Procedure: as §1

[4] = system: L. donovani axenic amastigotes; assay: In vitro antileishmanial assay, L. donovani axenic amastigotes (Alamar Blue); type: cell-based, Leishmania donovani
Procedure: as §1

[5] = system: Trypanosoma brucei trypomastigotes; assay: In vitro antitrypanosomal assay, T. brucei trypomastigotes (Alamar Blue); type: cell-based
Procedure: as §1

TbHK1 = system: TbHK1; design: method as in PMID 20971104; details: read-out: TbHK1 inhibition IC50; cited from earlier work
THP1 cells = assay: General cytotoxicity against THP1 cells; type: cell-based, human; details: Table 1
[6] = Leishmania donovani, fractions, Table 2
[7] = Leishmania donovani, THP-1, Table 2, read-out: L. Donovani Amastigote/THP IC50
[8] = Leishmania donovani, THP-1, Table 2, read-out: L. Donovani Amastigote/THP IC90
[9] = Leishmania donovani, Table 2, read-out: L. Donovani Amastigote IC50
[10] = Leishmania donovani, Table 2, read-out: L. Donovani Amastigote IC90
[11] = Trypanosoma brucei, isolated compounds
[12] = Leishmania donovani, isolated compounds, Table 1, tested range 0.4–10 ug/mL
[13] = Leishmania donovani, THP-1, Table 1, read-out: L. Donovani Amastigote/THP1 IC50
[14] = Leishmania donovani, THP-1, Table 1, read-out: L. Donovani Amastigote/THP1 IC90
[15] = Leishmania donovani, Table 1, read-out: L. Donovani Amastigote IC50
[16] = Leishmania donovani, Table 1, read-out: L. Donovani Amastigote IC90
[17] = isolated compounds, Table 1, tested range 0.4–10 ug/mL

| IC50 [5, 11] | IC90 [5, 11] | IC50 [3, 13] | IC90 [3, 14] | IC90 [4, 16] | Compound | IC50 ([2]; Table 1) | IC90 ([2]; Table 1) | IC50 [1, 12] | IC90 [1, 12] | IC50 [4, 15] | further results |
| --- | --- | --- | --- | --- | --- | --- | --- | --- | --- | --- | --- |
| – | – | – | – | – | C[C@@H]1[C@H](O)[C@@H](C)/C=C/C=C/C=C/C=C/C=C/C=C/C=C/[C@H](O[C@@H]2O[C@H](C)[C@@H](O)[C@H](N)[C@@H]2O)C[C@@H]2O[C@](O)(C[C@@H](O)C[C@@H](O)[C@H](O)CC[C@@H](O)C[C@@H](O)CC(=O)O[C@H]1C)C[C@H](O)[C@H]2C(=O)O [AMB, Amphotericin, reference compound] | > 2 µM | > 2 µM | – | – | – | IC50 [1, 6]: 0.138 µg/mL; IC90 [1, 6]: 0.188 µg/mL; IC50 ([2]; Table 2): > 2 µg/mL; IC90 ([2]; Table 2): > 2 µg/mL; IC50 [3, 7]: 0.187 µg/mL; IC90 [3, 8]: 0.264 µg/mL; IC50 [4, 9]: 0.304 µg/mL; IC90 [4, 10]: 0.362 µg/mL |
| > 10 µM | > 10 µM | > 10 µM | > 10 µM | > 10 µM | O=c1c(-c2c(O)cc(O)c3c(=O)cc(-c4ccc(O)cc4)oc23)c(-c2ccc(O)cc2)oc2cc(O)cc(O)c12 [Compound 3, biapigenin] | > 10 µM | > 10 µM | > 10 µM | > 10 µM | > 10 µM | – |
| > 10 µM | > 10 µM | > 10 µM | > 10 µM | > 10 µM | O=c1c(OC2OC(CO)C(O)C(O)C2O)c(-c2cc(O)c(O)c(O)c2)oc2cc(O)cc(O)c12 [Compound 6, myricetin-3-O-β-D-galactopyranoside] | > 10 µM | > 10 µM | > 10 µM | > 10 µM | > 10 µM | – |
| > 10 µM | > 10 µM | > 10 µM | > 10 µM | > 10 µM | O=c1c(O)c(-c2cc(O)c(O)c(OC3OC(CO)C(O)C(O)C3O)c2)oc2cc(O)cc(O)c12 [Compound 7, myricetin-3’-O-β-D-glucopyranoside] | > 10 µM | > 10 µM | > 10 µM | > 10 µM | > 10 µM | – |
| – | – | – | – | – | NCCC[C@](N)(C(=O)O)C(F)F [DFMO, α-difluoromethylornithine, reference compound] | – | – | – | – | – | T. Brucei IC50 ([5]; fractions): 3.634 µg/mL; T. Brucei IC90 ([5]; fractions): 8.804 µg/mL; IC50 ([5]; isolated compounds): 3.63 µM; IC90 ([5]; isolated compounds): 8.8 µM |
| 0.001 µM | 0.002 µM | – | – | > 10 µM | N=C(N)c1ccc(OCCCCCOc2ccc(C(=N)N)cc2)cc1 [PENT, Pentamidine, reference compound] | > 10 µM | > 10 µM | – | – | – | IC50 ([5]; Trypanosoma brucei, fractions): 0.001 µg/mL; IC90 ([5]; Trypanosoma brucei, fractions): 0.002 µg/mL; IC50 [1, 6]: 1.48 µg/mL; IC90 [1, 6]: 2.38 µg/mL; IC50 ([2]; Table 2): > 10 µg/mL; IC90 ([2]; Table 2): > 10 µg/mL; IC50 [3, 7]: 1.16 µg/mL; IC90 [3, 8]: 5.59 µg/mL; IC50 [4, 9]: 9.58 µg/mL; IC90 [4, 10]: > 10 µg/mL |
| – | – | – | – | – | myricitrin [Compound 2] | – | – | – | – | – | IC50 ([5]; isolated compounds): > 10 µM; IC90 ([5]; isolated compounds): > 10 µM; IC50 [1, 17]: > 10 µM; IC90 [1, 17]: > 10 µM; IC50 (THP1 cells): > 10 µM; IC90 (THP1 cells): > 10 µM; IC50 ([3]; Table 1, read-out: L. Donovani Amastigote/THP1 IC50): > 10 µM; IC90 ([3]; Table 1, read-out: L. Donovani Amastigote/THP1 IC90): > 10 µM; IC50 ([4]; Table 1, read-out: L. Donovani Amastigote IC50): > 10 µM; IC90 ([4]; Table 1, read-out: L. Donovani Amastigote IC90): > 10 µM |

| Compound | IC50 [5, 11] | IC90 [5, 11] | IC50 [3, 13] | IC90 [3, 14] | IC90 [4, 16] | IC50 ([2]; Table 1) | IC90 ([2]; Table 1) | IC50 [1, 12] | IC90 [1, 12] | IC50 [4, 15] | further results |
| --- | --- | --- | --- | --- | --- | --- | --- | --- | --- | --- | --- |
| O=c1c(O)c(-c2ccc(O)c(O)c2)oc2cc(O)cc(O)c12 [Compound 1, quercetin] | 7.52 µM | 9.76 µM | > 10 µM | > 10 µM | > 10 µM | > 10 µM | > 10 µM | > 10 µM | > 10 µM | > 10 µM | IC50 (TbHK1): 4.1 µM |
| O=c1c(O)c(-c2cc(O)c(O)c(O)c2)oc2cc(O)cc(O)c12 [Compound 4, myricetin] | 5.71 µM | 7.97 µM | > 10 µM | > 10 µM | > 10 µM | > 10 µM | > 10 µM | > 10 µM | > 10 µM | > 10 µM | IC50 (TbHK1): 48.9 µM |
| O=c1c(O[C@@H]2O[C@H](CO)[C@H](O)[C@H](O)[C@H]2O)c(-c2ccc(O)c(O)c2)oc2cc(O)cc(O)c12 [Compound 5, hyperoside] | > 10 µM | > 10 µM | > 10 µM | > 10 µM | > 10 µM | > 10 µM | > 10 µM | > 10 µM | > 10 µM | > 10 µM | – |
